In patent publication US11747325B2, “Bleomycin for mimicking the effect of ionizing radiations on T cells” (Novagray, priority 2018, dated 2023):

What was measured:
T lymphocytes [1] = test: Bleomycin-induced CD8 T-lymphocyte apoptosis, treatment from the start of blood cell culture (at least 50 hours contact), flow cytometry; assay type: cell-based, human; conditions: for T lymphocytes apoptosis rate, from the start of cell culture: same blood sample, 8 Gy irradiation control 28.2%
Protocol: (§1) Blood samples were purchased from Etablissement Français du Sang (EFS) with the convention number 21PLER2016-0100 AV01. Blood samples were collected from healthy donors in 5 mL heparinized tubes without separation gel.
(§2) Blood cells were grown in RPMI-1640 with glutamax (Fisher scientific, France) supplemented with 20% fetal calf serum (FCS) (EuroBio, France). Cells were maintained at 37° C. with 5% CO2 during the experiments.
(§3) Bleomycin (EuroMedex) was solubilized in sterile MilliQ water at 50 mg/mL according to manufacturer instructions and stored at −80° C.
(§4) Samples were then centrifuged for 5 min at 300 g. The pellets were resuspended in phosphate-buffered saline (PBS) containing 10 μl of anti-human CD8-FITC antibody (Becton Dickinson, USA) and incubated for 20 minutes at room temperature. Then, red blood cells were lysed by addition of 4 ml of lysis buffer diluted 1:10 in water (Becton Dickinson, USA). After another 20 minutes incubation time at room temperature, samples were centrifuged for 5 min at 300 g and the pellets were washed with 3 ml of PBS. Pellets were suspended in 200 μl of PBS containing 25 μg/ml of propidium iodide (Sigma, France) and 5 μl of RNAse A at 10 mg/ml (Qiagen, France). The samples were analyzed by flow cytometry within the next hours, using the CytoFlex (Beckman Coulter, USA). […]
Two hundred microliters of blood were aliquoted into a 6-well plate containing 2 mL of RPMI-20% FCS-bleomycin, about 24 hours after blood collection. The cell culture media containing the different concentrations of bleomycin were made fresh just before starting the cell culture. After bleomycin incubation with blood cells for at least 50 hours (generally more than about 60 hours, in particular between 65 and 75 hours), samples were stained for flow cytometry analysis as described above.
(§5) Two treatment conditions were tested on the same blood sample: blood cells were treated by several bleomycin concentrations 24 hours after cell culture or from the start of cell culture. A control experiment was performed by irradiating blood samples at 8 Gy.

T lymphocytes [2] = test: Bleomycin-induced CD8 T-lymphocyte apoptosis, treatment 24 hours after blood cell culture (less than 50 hours contact), flow cytometry; assay type: cell-based, human; conditions: for T lymphocytes apoptosis rate, 24 hours after cell culture: staining 48 hours after treatment, same blood sample, 8 Gy control 28.2%
Protocol: as §1, §2, §3, §4
Two hundred microliters of blood were aliquoted into a 6-well plate containing 2 mL of RPMI-20% FCS, about 24 hours after blood collection. Bleomycin treatment, at the different concentrations, was performed 24 hours after blood cell culture by adding the Bleomycin directly into the wells. The staining for detecting apoptosis was performed as described above and 48 hours after the bleomycin treatment (thus, after less than 50 hours of contact of bleomycin with the cells). • Treatment during blood cell culture:
as §5

Bleomycin
T lymphocytes apoptosis rate, from the start of cell culture (T lymphocytes [1]; bleomycin 50 μg/mL): 12.47%
T lymphocytes apoptosis rate, from the start of cell culture (T lymphocytes [1]; bleomycin 100 μg/ml): 19.14%
T lymphocytes apoptosis rate, from the start of cell culture (T lymphocytes [1]; bleomycin 200 μg/ml): 23.44%
T lymphocytes apoptosis rate, from the start of cell culture (T lymphocytes [1]; bleomycin 300 μg/ml): 26.32%
T lymphocytes apoptosis rate, from the start of cell culture (T lymphocytes [1]; bleomycin 400 μg/ml): 30.68%
Bleomycin concentration achieving the apoptosis rate obtained after 8 Gy irradiation (T lymphocytes [1]; treatment applied at the start of blood cell culture): lower than 300 μg/ml
T lymphocytes apoptosis rate, 24 hours after cell culture (T lymphocytes [2]; bleomycin 50 μg/mL): 3.98%
T lymphocytes apoptosis rate, 24 hours after cell culture (T lymphocytes [2]; bleomycin 100 μg/ml): 2.72%
T lymphocytes apoptosis rate, 24 hours after cell culture (T lymphocytes [2]; bleomycin 200 μg/ml): 10.13%
T lymphocytes apoptosis rate, 24 hours after cell culture (T lymphocytes [2]; bleomycin 300 μg/ml): 11.9%
T lymphocytes apoptosis rate, 24 hours after cell culture (T lymphocytes [2]; bleomycin 400 μg/ml): 16.78%
Whether the apoptosis rate observed after 8 Gy irradiation is induced (T lymphocytes [2]; treatment 24 hours after blood cell culture, applied for less than 50 hours, 50 to 500 μg/mL): no bleomycin concentration, applied for less than 50 hours, induces the apoptosis rate observed after 8 Gy irradiation
